Test results reported in paper PMC6072100, “Exploring the links between peptoid antibacterial activity and toxicity” (MedChemComm, 2017).
Like-named read-outs stand apart in the source and are kept apart here. Square brackets hold non-standard residues; d marks the D form. Peptide text beside a SMILES is read from it. N(4-F-Bzl)Gly = O=C(O)CNCc1ccc(F)cc1; Gly(N-(CH2)6NH2) = NCCCCCCNCC(=O)O; Gly(N-2-aminoethyl) = NCCNCC(=O)O; Nspe = C[C@H](NCC(=O)O)c1ccccc1; Nphe = O=C(O)CNCc1ccccc1; Nlys = NCCCCNCC(=O)O

How the values were obtained:
HaCaT cells = assay: Skin cell toxicity assay with HaCaT (alamarBlue); type: cell-based, human
Method in brief: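 HaCaT cells seeded at 2x10^4 per well 24 hours before 1-hour exposure to a 2–100 µM triplicate dilution series in DMEM high glucose with 10% FBS at 37 °C, 5% CO2. Viability assessed with alamarBlue; ED50 defined as dose killing 50% of cells, derived from dose-response data.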

HepG2 cells = assay: Cytotoxicity assay with HepG2 (alamarBlue); type: cell-based, human
Method in brief: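 HepG2 cells (2 × 10^4/well, seeded 1 day earlier) were exposed to compounds (2–100 μM dilution series, triplicate) for 1 h in reduced volume, then diluted with medium and incubated 24 h at 37 °C. Viability was read by alamarBlue after 2 h (Ex 560/Em 600 nm), and ED50 (dose killing 50% of cells) came from dose-response curves.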

[1] = human, HaCaT cells (keratinocytes), 24 h
[2] = dose that kills 50% of cells, 2–100 μM, 1 h with compound then 24 h, alamarBlue

Structure (SMILES)	ED50 HaCaT (HaCaT cells; [1]) [µM]	ED50 HepG2 (HepG2 cells; human, HepG2 cells, 24 h) [µM]	further results
NCCCCCCNCC(=O)N(CC(=O)N(CC(=O)N(CCCCCCN)CC(=O)N(CC(=O)N(CC(=O)N(CCCCCCN)CC(=O)N(CC(=O)N(CC(=O)N(CCCCCCN)CC(=O)N(CC(=O)N(CC(N)=O)Cc1ccccc1)Cc1ccccc1)Cc1ccccc1)Cc1ccccc1)Cc1ccccc1)Cc1ccccc1)Cc1ccccc1)Cc1ccccc1 [Peptoid 1, (NahNpheNphe)4] (H-[Gly(N-(CH2)6NH2)][Nphe][Nphe][Gly(N-(CH2)6NH2)][Nphe][Nphe][Gly(N-(CH2)6NH2)][Nphe][Nphe][Gly(N-(CH2)6NH2)][Nphe][Nphe]-NH2)	>100	>100	–
NCCCCCCNCC(=O)N(CC(=O)N(CC(=O)N(CCCCCCN)CC(=O)N(CC(=O)N(CC(=O)N(CCCCCCN)CC(=O)N(CC(=O)N(CC(N)=O)Cc1ccccc1)Cc1ccccc1)Cc1ccccc1)Cc1ccccc1)Cc1ccccc1)Cc1ccccc1 [Peptoid 2, (NahNpheNphe)3] (H-[Gly(N-(CH2)6NH2)][Nphe][Nphe][Gly(N-(CH2)6NH2)][Nphe][Nphe][Gly(N-(CH2)6NH2)][Nphe][Nphe]-NH2)	>100	>100	–
NCCCCCCNCC(=O)N(CC(=O)N(CC(=O)N(CCCCCCN)CC(=O)N(CC(=O)N(CC(N)=O)Cc1ccccc1)Cc1ccccc1)Cc1ccccc1)Cc1ccccc1 [Peptoid 3, (NahNpheNphe)2] (H-[Gly(N-(CH2)6NH2)][Nphe][Nphe][Gly(N-(CH2)6NH2)][Nphe][Nphe]-NH2)	>100	>100	–
NCCCCNCC(=O)N(CC(=O)N(CC(=O)N(CCCCN)CC(=O)N(CC(=O)N(CC(=O)N(CCCCN)CC(=O)N(CC(=O)N(CC(=O)N(CCCCN)CC(=O)N(CC(=O)N(CC(N)=O)Cc1ccccc1)Cc1ccccc1)Cc1ccccc1)Cc1ccccc1)Cc1ccccc1)Cc1ccccc1)Cc1ccccc1)Cc1ccccc1 [Peptoid 4, (NLysNpheNphe)4] (H-[Nlys][Nphe][Nphe][Nlys][Nphe][Nphe][Nlys][Nphe][Nphe][Nlys][Nphe][Nphe]-NH2)	–	>100	toxicity to HaCaT or HepG2 (in words) (HaCaT cells): negligible toxicity; ED50 HepG2 (HepG2 cells): > 100 µM
NCCCCNCC(=O)N(CC(=O)N(CC(=O)N(CCCCN)CC(=O)N(CC(=O)N(CC(=O)N(CCCCN)CC(=O)N(CC(=O)N(CC(N)=O)Cc1ccccc1)Cc1ccccc1)Cc1ccccc1)Cc1ccccc1)Cc1ccccc1)Cc1ccccc1 [Peptoid 5, (NLysNpheNphe)3]	>100	>100	–
NCCCCNCC(=O)N(CC(=O)N(CC(=O)N(CCCCN)CC(=O)N(CC(=O)N(CC(N)=O)Cc1ccccc1)Cc1ccccc1)Cc1ccccc1)Cc1ccccc1 [Peptoid 6, (NLysNpheNphe)2] (H-[Nlys][Nphe][Nphe][Nlys][Nphe][Nphe]-NH2)	>100	>100	–
NCCNCC(=O)N(CC(=O)N(CC(=O)N(CCN)CC(=O)N(CC(=O)N(CC(=O)N(CCN)CC(=O)N(CC(=O)N(CC(=O)N(CCN)CC(=O)N(CC(=O)N(CC(N)=O)Cc1ccccc1)Cc1ccccc1)Cc1ccccc1)Cc1ccccc1)Cc1ccccc1)Cc1ccccc1)Cc1ccccc1)Cc1ccccc1 [Peptoid 7, (NaeNpheNphe)4] (H-[Gly(N-2-aminoethyl)][Nphe][Nphe][Gly(N-2-aminoethyl)][Nphe][Nphe][Gly(N-2-aminoethyl)][Nphe][Nphe][Gly(N-2-aminoethyl)][Nphe][Nphe]-NH2)	>100	>100	toxicity to HaCaT or HepG2 (in words) (HaCaT cells): negligible toxicity
NCCNCC(=O)N(CC(=O)N(CC(=O)N(CCN)CC(=O)N(CC(=O)N(CC(=O)N(CCN)CC(=O)N(CC(=O)N(CC(N)=O)Cc1ccccc1)Cc1ccccc1)Cc1ccccc1)Cc1ccccc1)Cc1ccccc1)Cc1ccccc1 [Peptoid 8, (NaeNpheNphe)3] (H-[Gly(N-2-aminoethyl)][Nphe][Nphe][Gly(N-2-aminoethyl)][Nphe][Nphe][Gly(N-2-aminoethyl)][Nphe][Nphe]-NH2)	>100	>100	–
NCCNCC(=O)N(CC(=O)N(CC(=O)N(CCN)CC(=O)N(CC(=O)N(CC(N)=O)Cc1ccccc1)Cc1ccccc1)Cc1ccccc1)Cc1ccccc1 [Peptoid 9, (NaeNpheNphe)2] (H-[Gly(N-2-aminoethyl)][Nphe][Nphe][Gly(N-2-aminoethyl)][Nphe][Nphe]-NH2)	>100	>100	–
C[C@@H](c1ccccc1)N(CC(N)=O)C(=O)CN(C(=O)CN(CCCCCCN)C(=O)CN(C(=O)CN(C(=O)CN(CCCCCCN)C(=O)CN(C(=O)CN(C(=O)CNCCCCCCN)[C@@H](C)c1ccccc1)[C@@H](C)c1ccccc1)[C@@H](C)c1ccccc1)[C@@H](C)c1ccccc1)[C@@H](C)c1ccccc1 [Peptoid 11, (NahNspeNspe)3] (H-[Gly(N-(CH2)6NH2)][Nspe][Nspe][Gly(N-(CH2)6NH2)][Nspe][Nspe][Gly(N-(CH2)6NH2)][Nspe][Nspe]-NH2)	>100	>100	–
C[C@@H](c1ccccc1)N(CC(N)=O)C(=O)CN(C(=O)CN(CCCCCCN)C(=O)CN(C(=O)CN(C(=O)CNCCCCCCN)[C@@H](C)c1ccccc1)[C@@H](C)c1ccccc1)[C@@H](C)c1ccccc1 [Peptoid 12, (NahNspeNspe)2]	>100	>100	–
C[C@@H](c1ccccc1)N(CC(N)=O)C(=O)CN(C(=O)CN(CCCCN)C(=O)CN(C(=O)CN(C(=O)CN(CCCCN)C(=O)CN(C(=O)CN(C(=O)CN(CCCCN)C(=O)CN(C(=O)CN(C(=O)CNCCCCN)[C@@H](C)c1ccccc1)[C@@H](C)c1ccccc1)[C@@H](C)c1ccccc1)[C@@H](C)c1ccccc1)[C@@H](C)c1ccccc1)[C@@H](C)c1ccccc1)[C@@H](C)c1ccccc1 [Peptoid 13, (NLysNspeNspe)4] (H-[Nlys][Nspe][Nspe][Nlys][Nspe][Nspe][Nlys][Nspe][Nspe][Nlys][Nspe][Nspe]-NH2)	–	–	ED50 HaCaT (HaCaT cells; [2]): 20 µM; ED50 HepG2 (HepG2 cells; [2]): 29 µM
C[C@@H](c1ccccc1)N(CC(N)=O)C(=O)CN(C(=O)CN(CCCCN)C(=O)CN(C(=O)CN(C(=O)CN(CCCCN)C(=O)CN(C(=O)CN(C(=O)CNCCCCN)[C@@H](C)c1ccccc1)[C@@H](C)c1ccccc1)[C@@H](C)c1ccccc1)[C@@H](C)c1ccccc1)[C@@H](C)c1ccccc1 [Peptoid 14, (NLysNspeNspe)3] (H-[Nlys][Nspe][Nspe][Nlys][Nspe][Nspe][Nlys][Nspe][Nspe]-NH2)	–	–	ED50 HaCaT (HaCaT cells; [2]): >100 µM; ED50 HepG2 (HepG2 cells; [2]): >100 µM
C[C@@H](c1ccccc1)N(CC(N)=O)C(=O)CN(C(=O)CN(CCCCN)C(=O)CN(C(=O)CN(C(=O)CNCCCCN)[C@@H](C)c1ccccc1)[C@@H](C)c1ccccc1)[C@@H](C)c1ccccc1 [Peptoid 15, (NLysNspeNspe)2] (H-[Nlys][Nspe][Nspe][Nlys][Nspe][Nspe]-NH2)	>100	>100	–
C[C@@H](c1ccccc1)N(CC(N)=O)C(=O)CN(C(=O)CN(CCN)C(=O)CN(C(=O)CN(C(=O)CN(CCN)C(=O)CN(C(=O)CN(C(=O)CNCCN)[C@@H](C)c1ccccc1)[C@@H](C)c1ccccc1)[C@@H](C)c1ccccc1)[C@@H](C)c1ccccc1)[C@@H](C)c1ccccc1 [Peptoid 17, (NaeNspeNspe)3]	–	–	ED50 HaCaT (HaCaT cells; [2]): >100 µM; ED50 HepG2 (HepG2 cells; [2]): >100 µM
C[C@@H](c1ccccc1)N(CC(N)=O)C(=O)CN(C(=O)CN(CCN)C(=O)CN(C(=O)CN(C(=O)CNCCN)[C@@H](C)c1ccccc1)[C@@H](C)c1ccccc1)[C@@H](C)c1ccccc1 [Peptoid 18, (NaeNspeNspe)2]	>100	>100	–
COc1ccc(CN(CC(N)=O)C(=O)CN(Cc2ccc(OC)cc2)C(=O)CN(CCCCN)C(=O)CN(Cc2ccc(OC)cc2)C(=O)CN(Cc2ccc(OC)cc2)C(=O)CN(CCCCN)C(=O)CN(Cc2ccc(OC)cc2)C(=O)CN(Cc2ccc(OC)cc2)C(=O)CN(CCCCN)C(=O)CN(Cc2ccc(OC)cc2)C(=O)CN(Cc2ccc(OC)cc2)C(=O)CNCCCCN)cc1 [Peptoid 19, (NLysNpmbNpmb)4]	–	>100	–
NCCCCNCC(=O)N(CC(=O)N(CC(=O)N(CCCCN)CC(=O)N(CC(=O)N(CC(=O)N(CCCCN)CC(=O)N(CC(=O)N(CC(=O)N(CCCCN)CC(=O)N(CC(=O)N(CC(N)=O)Cc1ccc(F)cc1)Cc1ccc(F)cc1)Cc1ccc(F)cc1)Cc1ccc(F)cc1)Cc1ccc(F)cc1)Cc1ccc(F)cc1)Cc1ccc(F)cc1)Cc1ccc(F)cc1 [Peptoid 22, (NLysNpfbNpfb)4] (H-[Nlys][N(4-F-Bzl)Gly][N(4-F-Bzl)Gly][Nlys][N(4-F-Bzl)Gly][N(4-F-Bzl)Gly][Nlys][N(4-F-Bzl)Gly][N(4-F-Bzl)Gly][Nlys][N(4-F-Bzl)Gly][N(4-F-Bzl)Gly]-NH2)	–	–	ED50 HaCaT (HaCaT cells): 46 µM; ED50 HepG2 (HepG2 cells): 30 µM
NCCCCNCC(=O)N(CC(=O)N(CC(=O)N(CCCCN)CC(=O)N(CC(=O)N(CC(=O)N(CCCCN)CC(=O)N(CC(=O)N(CC(N)=O)Cc1ccc(F)cc1)Cc1ccc(F)cc1)Cc1ccc(F)cc1)Cc1ccc(F)cc1)Cc1ccc(F)cc1)Cc1ccc(F)cc1 [Peptoid 23, (NLysNpfbNpfb)3] (H-[Nlys][N(4-F-Bzl)Gly][N(4-F-Bzl)Gly][Nlys][N(4-F-Bzl)Gly][N(4-F-Bzl)Gly][Nlys][N(4-F-Bzl)Gly][N(4-F-Bzl)Gly]-NH2)	>100	–	toxicity to HaCaT or HepG2 (in words) (HaCaT cells): negligible toxicity
C[C@@H](c1ccccc1)N(CC(N)=O)C(=O)CN(C(=O)CN(CCCCN)C(=O)CN(Cc1ccc(F)cc1)C(=O)CN(Cc1ccc(F)cc1)C(=O)CN(CCCCN)C(=O)CN(C(=O)CN(C(=O)CN(CCCCN)C(=O)CN(Cc1ccc(F)cc1)C(=O)CN(Cc1ccc(F)cc1)C(=O)CNCCCCN)[C@@H](C)c1ccccc1)[C@@H](C)c1ccccc1)[C@@H](C)c1ccccc1 [Peptoid 28, [(NLysNpfbNpfb)(NLysNspeNspe)]2]	>100	–	toxicity to HaCaT or HepG2 (in words) (HaCaT cells): negligible toxicity; ED50 HepG2 (HepG2 cells): 55 µM
